Source: ChEMBL document CHEMBL1146540, “Bioactive constituents from three Vismia species” (2003)
≈ marks a conversion by molar mass, not a printed value. Calls of active or inactive are those of the source. The rule behind the calls is not given here.

Columns and labels:
Format in all cases: functional
NCI-H460 = assay: Cytotoxicity against human H460 cells
SF-268 = assay: Cytotoxicity against human SF268 cells
MCF7 = assay: Cytotoxicity against human MCF7 cells

COc1cc2c(c(O)c1/C=C/C(C)C)C(=O)c1c(O)cc(C)cc1C2=O
Activity (NCI-H460): inactive | Activity (SF-268): inactive | Activity (MCF7): inactive

COc1cc2c(c(O)c1/C=C/C(C)C)C(=O)c1c(O)cc(C)cc1C2C1c2cc(C)cc(O)c2C(=O)c2c1cc(OC)c(/C=C/C(C)C)c2O (stereo not given)
Activity (NCI-H460): inactive | Activity (SF-268): inactive | Activity (MCF7): inactive

COc1cc2cc3c(c(O)c2c(O)c1/C=C/C(C)C)C(=O)CC(C)(O)C3 (stereo not given) [DEACETYLVISMIONE A]
GI50 (NCI-H460): 1.9 µg/mL (≈ 5.33 µM) | GI50 (SF-268): 2.2 µg/mL (≈ 6.17 µM) | GI50 (MCF7): 1.8 µg/mL (≈ 5.05 µM)

CC(C)=CCOc1cc(O)c2c(O)c3c(cc2c1)CC(C)(O)CC3=O (stereo not given) [DEACETYLVISMIONE H]
GI50 (NCI-H460): 0.6 µg/mL (≈ 1.75 µM) | GI50 (SF-268): 0.6 µg/mL (≈ 1.75 µM) | GI50 (MCF7): 0.4 µg/mL (≈ 1.17 µM)

CC(C)=CCc1c(C)cc2cc3c(c(O)c2c1O)C(=O)C=C(O)C3(CC=C(C)C)CC=C(C)C [FERRUGININ A]
GI50 (NCI-H460): 3.3 µg/mL (≈ 7.16 µM) | GI50 (SF-268): 4.9 µg/mL (≈ 10.6 µM) | GI50 (MCF7): 5 µg/mL (≈ 10.9 µM)

CC(C)=CCC1=C(O)C(CC=C(C)C)(CC=C(C)C)c2cc3cc(C)cc(O)c3c(O)c2C1=O [FERRUGININ B]
GI50 (NCI-H460): 5 µg/mL (≈ 10.9 µM) | GI50 (SF-268): 4 µg/mL (≈ 8.68 µM) | GI50 (MCF7): 5 µg/mL (≈ 10.9 µM)

CC(C)=CCC1=C(O)C(CC=C(C)C)(CC=C(C)C)c2cc3c(CC=C(C)C)c(C)cc(O)c3c(O)c2C1=O [FERRUGININ C]
GI50 (NCI-H460): 5.4 µg/mL (≈ 10.2 µM) | GI50 (SF-268): 4 µg/mL (≈ 7.57 µM) | GI50 (MCF7): 4.8 µg/mL (≈ 9.08 µM)

CC(C)=CCc1c(C)cc(O)c2c(O)c3c(cc12)C(CC=C(C)C)(CC=C(C)C)C(O)=CC3=O [HARUNGANIN]
GI50 (NCI-H460): 6.4 µg/mL (≈ 13.9 µM) | GI50 (SF-268): 6 µg/mL (≈ 13 µM) | GI50 (MCF7): 6 µg/mL (≈ 13 µM)

CC(C)=CCC1(CC=C(C)C)C(O)=CC(=O)c2c1cc1cc(C)cc(O)c1c2O [VISMIN]
GI50 (NCI-H460): 7.3 µg/mL (≈ 18.6 µM) | GI50 (SF-268): 5.7 µg/mL (≈ 14.5 µM) | GI50 (MCF7): 5.2 µg/mL (≈ 13.2 µM)

COc1cc2cc3c(c(O)c2c2c1C=CC(C)(C)O2)C(=O)CC(C)(O)C3 (stereo not given) [VISMIONE B]
GI50 (NCI-H460): 2.8 µg/mL (≈ 7.9 µM) | GI50 (SF-268): 2.5 µg/mL (≈ 7.05 µM) | GI50 (MCF7): 1.6 µg/mL (≈ 4.51 µM)
